The text below walks through data of patent publication US11730720B2, “ALK5 inhibitors” (THERAVANCE BIOPHARMA R&D IP, LLC, priority 2018, dated 2023).

The test system of experiment [1] is TGF-β-stimulated SMAD3 phosphorylation in BEAS-2B cells. Briefly: Cellular ALK5 potency assay, inhibition of TGF-β stimulated pSMAD3 formation in BEAS-2B cells. The experiment is classed as cell-based. The following applies: Homo sapiens, inhibition of TGF-β (10 ng/mL) stimulated pSMAD3 formation, 1 hour compound incubation, read-out: BEAS2B pIC50 (converted). The method in brief:
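Phospho-SMAD3 was quantified by AlphaLISA in lysates of human lung epithelial BEAS-2B cells. Compound was added 1 h (37 °C, HEPES/BSA-supplemented HBSS) before a 30 min challenge with 10 ng/mL TGF-β. Values are pIC50 relative to stimulated cells without compound.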

For experiment [2], the target named is T1, recombinant human ALK5 (TGF-βR1) protein (Homo sapiens, UniProt P36897).
T1 construct: purchased Life Technologies PR9075A
T1 sequence (P36897 34-503): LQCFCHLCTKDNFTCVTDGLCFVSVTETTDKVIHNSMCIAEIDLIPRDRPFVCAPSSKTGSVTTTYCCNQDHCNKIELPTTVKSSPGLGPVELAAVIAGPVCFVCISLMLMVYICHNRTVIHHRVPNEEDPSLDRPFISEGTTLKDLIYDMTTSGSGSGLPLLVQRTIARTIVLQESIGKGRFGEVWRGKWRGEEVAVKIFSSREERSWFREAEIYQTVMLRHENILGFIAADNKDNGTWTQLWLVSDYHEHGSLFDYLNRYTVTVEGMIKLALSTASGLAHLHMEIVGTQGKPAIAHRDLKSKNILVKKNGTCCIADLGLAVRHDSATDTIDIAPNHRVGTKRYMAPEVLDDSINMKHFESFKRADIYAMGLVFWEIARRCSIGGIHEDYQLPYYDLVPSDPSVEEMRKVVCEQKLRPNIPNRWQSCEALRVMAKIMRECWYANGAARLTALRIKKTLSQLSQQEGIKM
Nature of the experiment: Biochemical ALK5 (TGF-βR1) assay to measure pKi (LANCE Ultra ULight kinase assay). The following applies: apparent pKi, converted from pIC50 using the Cheng-Prusoff equation. In short, it runs like this: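 TR-FRET kinase format: compound dose range 10 μM–25 pM equilibrated 60 min with human ALK5 and ULight-labelled topoisomerase 2α peptide in HEPES/MgCl2 buffer pH 7.5 with DTT. Reaction started with ATP (125 μM stock, 5× final), 60 min at 37° C, stopped with EDTA/Eu-anti-phospho antibody; pKi derived from pIC50 via Cheng-Prusoff.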
(In general: TR-FRET usually uses a lanthanide donor and a delayed reading to cut background.)

Turning to `CNCCn1cc(-c2cnc3ccc(-c4c(-c5cc(Cl)c(F)cc5F)[nH]c5cccnc45)nc3c2)cn1` [Compound 26-1, 2-[4-[6-[2-(5-chloro-2,4-difluoro-phenyl)-1H-pyrrolo[3,2-b]pyridin-3-yl]-1,5-naphthyridin-3-yl]pyrazol-1-yl]-N-methyl-ethanamine], in experiment [1], the IC50 was 200 to 1260 nM. Further, the Ki in experiment [2] was 0.0398 to 0.316 nM.

`CNCCn1cc(-c2cnc3ccc(-c4c(-c5ccc(F)c(F)c5)[nH]c5cccnc45)nc3c2)cn1` [Compound 27-1, 2-[4-[6-[2-(3,4-difluorophenyl)-1H-pyrrolo[3,2-b]pyridin-3-yl]-1,5-naphthyridin-3-yl]pyrazol-1-yl]-N-methyl-ethanamine]: the IC50 in experiment [1] is 25.1 to 158 nM. Further, the Ki in experiment [2] was 3.98 to 31.6 nM.

Turning to `CC(C)N1CCN(CCNc2cnc3ccc(-c4c[nH]nc4-c4cccc(Cl)c4)nc3c2)CC1` [Compound 28-1, 6-(3-(3-chlorophenyl)-1H-pyrazol-4-yl)-N-(2-(4-isopropylpiperazin-1-yl)ethyl)-1,5-naphthyridin-3-amine], the IC50 in experiment [1] was 25.1 to 158 nM. In addition, the Ki in experiment [2] was 0.0398 to 0.316 nM.

On to `CC(C)N1CCN(CCNc2cnc3ccc(-c4nc[nH]c4-c4cccc(Cl)c4)nc3c2)CC1` [Compound 29-1, 6-(5-(3-chlorophenyl)-1H-imidazol-4-yl)-N-(2-(4-isopropylpiperazin-1-yl)ethyl)-1,5-naphthyridin-3-amine], for which the IC50 in experiment [1] was at most 20 nM. Moreover, the Ki in experiment [2] is 0.398 to 3.16 nM.

On to `C[C@@H]1CN(CCNc2cnc3ccc(-c4nc[nH]c4-c4cccc(Cl)c4)nc3c2)C[C@H](C)N1` [Compound 29-2, 6-[5-(3-chlorophenyl)-1H-imidazol-4-yl]-N-[2-[rac-(3R,5S)-3,5-dimethylpiperazin-1-yl]ethyl]-1,5-naphthyridin-3-amine], for which the IC50 in experiment [1] was 25.1 to 158 nM. Further, the Ki in experiment [2] is 0.398 to 3.16 nM.

As for `COC(=O)CC1CN(c2cnc3ccc(-c4nc[nH]c4-c4cccc(Cl)c4)nc3c2)CCN1` (centres unmarked) [Compound 29-3, methyl 2-(4-(6-(5-(3-chlorophenyl)-1H-imidazol-4-yl)-1,5-naphthyridin-3-yl)piperazin-2-yl)acetate], in experiment [1], the IC50 was 25.1 to 158 nM. Also, the Ki in experiment [2] was 0.398 to 3.16 nM.

Regarding `O=C(O)CC1CN(c2cnc3ccc(-c4nc[nH]c4-c4cccc(Cl)c4)nc3c2)CCN1` (centres unmarked) [Compound 29-4, 2-(4-(6-(5-(3-chlorophenyl)-1H-imidazol-4-yl)-1,5-naphthyridin-3-yl)piperazin-2-yl)acetic acid], the IC50 in experiment [1] was 1580 to 10000 nM. In addition, in experiment [2], the Ki is 0.398 to 3.16 nM.
